Assays:
[1] = test system: non-proliferating fibroblasts; assay: Cytotoxicity to non-proliferating fibroblasts (cell number per dish); format: cell-based; conditions: 5 mM, 72 hr
Description: Certain aspects of the present invention are described in greater detail in the non-limiting Examples that follow. (See also Murad et al, Arch. Biochem. Biophys. 292:234 (1992)).

[2] = test system: Prolyl Hydroxylations in Human Skin Fibroblasts; assay: Hydroxylation of proline residues in type I procollagen (Hyp/Pro); format: cell-based; conditions: for Hyp/Pro: 72 hr
Experimental: Culture of human skin fibroblasts derived from an apparently normal adult were grown to confluent densities in Dulbecco's modified Eagle's medium supplemented with 10% (v/v) fetal calf serum. Thereafter, the medium was replaced with medium supplemented with 0.5% dialyzed fetal calf serum. […] In some experiments, minoxodil was dissolved in 95% (v/v) ethanol; […]. Cultures treated with ethanol only served as the control.
During the last 6 hr of treatment, cultures were labeled with 50 μCi of L-[2,3-^3 H]proline (35 Ci/mmol) and 50 μCi of L[U-^14 C]lysine ([…]) in 4 ml of lysine-free medium supplemented with 100 μM ascorbic acid. At the end of the incubation period, the medium was removed and mixed with 1 mM each of EDTA, N-ethylmaleimide, and phenylmethylsulfonylfluoride, and the collagenous proteins were precipitated with 30% (NH4)2 SO4. The cell layer was scraped and extracted with 0.5 M acetic acid containing the protease inhibitors as above. The cell extract was neutralized, and the collagenous proteins were precipitated as above. The (NH4)2 SO4 precipitate from the medium and cell layer was separately dissolved in 0.1% SDS/10 mM Tris-HCl (pH 6.8), reduced with dithiothreitol, and analyzed by electrophoresis on 4% SDS-polyacrylamide gels. The bands corresponding to the proαl(I) and proα2(I) chains from the two fractions were pooled and hydrolyzed with 6 M HCl for 24 hr at 110° C. Proline, hydroxyproline, lysine, and hydroxylysine in the hydrolysate were separated by HPLC (Takimitsa et al, J. Dermatol. 16:37 (1989)), and their radioactivity was determined in a Beckman liquid scintillation counter. To isolate type I procollagen the precipitate from the medium and cell layer was separately dissolved in 25 mM Tris-HCl, pH 7.5, containing 2 M urea and 1 mM each of EDTA, N-ethylmaleimide, and phenylmethylsulfonylfluoride, then chromatographed on a DEAE-cellulose column (Freiberger et al, J. Invest. Dermatol. 75:425 (1980)). The procollagen isolated from the two fractions was pooled, hydrolyzed, and analyzed as above.

lysyl hydroxylase [3] = assay: Lysyl hydroxylase activity in extracts of treated human skin fibroblasts (Example 1, tritium-release assay); format: cell-based; conditions: for Lysyl hydroxylase activity (%): 1% ethanol
lysyl hydroxylase [4] = assay: as above; format: cell-based; conditions: 0.1 mM; dissolved in HCl; final concentration 0.0012 N; 72 h (Table II footnote a)
human skin fibroblasts = conditions: background; cited from earlier work

Nc1cc(N2CCCCC2)nc(N)[n+]1[O-] [Minoxidil]
10^-6 × No. of Cells/Dish [1]: 0.49 10^-6 × No. of Cells/Dish
Hyp/Pro ([2]; 1 mM, gel electrophoresis (Table V)): 0.92 ± .01
Hyp/Pro ([2]; 1 mM, type I procollagen chains isolated by gel electrophoresis, mean ± range of two experiments (description table)): 0.92 ± 0.01
Hyp/Pro ([2]; 0.3 M, type I procollagen chains isolated by gel electrophoresis, mean ± range (Table IV)): 0.91 ± .03
activity at 1000 µM ([2]; Homo sapiens, Skin fibroblast, 1 mM, 72 hr (Table V), read-out: ratio of hydroxyproline to proline, % control value): 100%
ratio of hydroxyproline to proline (in words) ([2]; Table IV text): remained unaltered
Lysyl hydroxylase activity (%) (lysyl hydroxylase [3]; 1 nM, 72 h, % of ethanol-treated controls (Table II)): 19-39%
Lysyl hydroxylase activity (%) (lysyl hydroxylase [3]; 1 mM, 72 h, % of solvent-treated controls (Table I)): 28%
decrease of the level of lysyl hydroxylase activity (lysyl hydroxylase [3]; 72 h, 1 mM (Table I text)): 72%
IC50 (lysyl hydroxylase [3]; cultured fibroblasts, 72 h (FIG. 2), read-out: concentration required for 50% inhibition (lysyl hydroxylase)): 118 µM
Lysyl hydroxylase activity (%) (lysyl hydroxylase [4]): 45%
inhibition of serum-induced proliferation of fibroblasts in culture (in words) (human skin fibroblasts): capable of inhibiting the serum-induced proliferation of fibroblasts in culture
